Results taken from patent publication US20240246913A1, “2-CARBOXYL-INDOLE INHIBITORS OF METALLO-BETA-LACTAMASES” (Oxford University Innovation Limited, priority 2021, published 2024).

How the values were obtained:
NDM-1 = NDM-1 (Klebsiella pneumoniae, UniProt C7C422); test: MBL inhibition, FC-5 fluorescence assay, NDM-1; assay type: biochemical; details: FC-5 cephalosporin substrate, fluorescence; ranges of obtained pIC50; read-out: pIC50 NDM-1 (converted)
Procedure, shortened: (§1)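 Enzyme activity was followed as the initial rate of fluorescence increase (λex 380, λem 460 nm) as FC-5 was cleaved and released its fluorophore. Values come from variable-slope fits of normalized response against log inhibitor concentration.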

[1] = Plasma protein binding, equilibrium dialysis, mouse plasma; assay type: in vitro ADME; details: pH 7.4, equilibrium dialysis (RED) 4 hours at 37° C., read-out: Plasma protein binding, fu, Mouse
Experimental: The fraction of unbound compound (fu) in plasma from human or other animal species was determined by equilibrium dialysis at 37° C. for 4 hours using the Rapid Equilibrium Dialysis (RED) device (ThermoFisher Scientific). The test compound at a concentration of 10 μM was added to plasma and dialyzed against isotonic phosphate buffer (67 mM, pH 7.4) over 4 hours at 37° C. After dialysis, compound concentrations in buffer and plasma were quantified by LC-MS/MS. In parallel the stability of the compound in plasma was determined by incubating drug-spiked plasma (10 μM) at 37° C. for 4 hours, meanwhile the control plasma sample was kept in the freezer. The concentration of the compound in both samples was quantified by LC-MS/MS (Waters Corp, Milford, MA, USA).

IMP-1 = IMP-1 (Serratia marcescens, UniProt P52699); test: MBL inhibition, FC-5 fluorescence assay, IMP-1; assay type: biochemical; details: FC-5 cephalosporin substrate, fluorescence; ranges of obtained pIC50; read-out: pIC50 IMP-1 (converted)
IMP-1, sequence (P52699 19-246, looked up, species assumed): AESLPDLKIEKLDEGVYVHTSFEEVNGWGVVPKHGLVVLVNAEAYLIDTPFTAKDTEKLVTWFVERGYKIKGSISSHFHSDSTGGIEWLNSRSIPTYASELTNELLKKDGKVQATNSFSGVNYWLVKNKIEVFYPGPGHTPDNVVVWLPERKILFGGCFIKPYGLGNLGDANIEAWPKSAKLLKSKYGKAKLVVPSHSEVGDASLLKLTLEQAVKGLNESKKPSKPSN
Procedure, shortened: as §1

[2] = Metabolic stability in mouse hepatocytes; assay type: in vitro ADME; details: cryopreserved mouse hepatocytes, 1 μM compound, 37° C., up to 90 min, read-out: Metabolic stability in hepatocytes, in vitro t1/2, Mouse
Experimental: (§2) Metabolic stability assays were performed in cryopreserved human and mouse hepatocytes. The hepatocytes were thawed and added to “Thawing media”, and centrifuged to pellet the hepatocytes. The cell pellet was taken up in Williams medium E (Invitrogen A1217601), the number of cells was calculated and adjusted to 1.0×10^6 cells/mi. The incubation was carried out on a heater-shaker at […], in a 24-well Picoplate (round bottom, PerkinElmer), using an incubation volume of […]. Thus, to obtain a final compound concentration of 1 μM, 0.7 μl of the 1 mM compound stock solution was pipetted to the wells of the plate. Reaction was initiated by adding 700 μl of cell suspension. Samples were incubated at 37° C. for […] and a zero sample was taken, i.e. 100 μl sample was removed to a 96-well plate and the reaction was quenched by adding 100 μl of 100% MeCN containing 50 nM Warfarin as an internal control. Consecutive samples were taken at time-points 5 min, 15 min, 30 min, 60 min, and 90 min. After finishing the experiment, samples were centrifuged at 3000 rpm for 15 min and before analysis by LC-MS/MS (Waters Corp, Milford, MA, USA).

VIM-1 = VIM-1 (Pseudomonas aeruginosa, UniProt A0A0F7KYQ8); test: MBL inhibition, FC-5 fluorescence assay, VIM-1; assay type: biochemical; details: FC-5 cephalosporin substrate, ranges of obtained pIC50, read-out: pIC50 VIM-1 (converted)
Procedure, shortened: as §1

[3] = Plasma protein binding, equilibrium dialysis, human plasma; assay type: in vitro ADME; details: pH 7.4, equilibrium dialysis (RED) 4 hours at 37° C., read-out: Plasma protein binding, fu, Human
Procedure, shortened: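 Compound at 10 μM in plasma dialysed against 67 mM phosphate buffer pH 7.4 for 4 h at 37° C. in RED device; unbound fraction from buffer and plasma levels by LC-MS/MS. Plasma stability checked in parallel over 4 h at 37° C. versus frozen control.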

[4] = Metabolic stability in human hepatocytes; assay type: in vitro ADME; details: cryopreserved human hepatocytes, 1 μM compound, 37° C., up to 90 min, read-out: Metabolic stability in hepatocytes, in vitro t1/2, Human
Experimental: as §2

VIM-2 = VIM-2 (Escherichia coli, UniProt Q5U7L7); test: MBL inhibition, FC-5 fluorescence assay, VIM-2; assay type: biochemical; details: FC-5 cephalosporin substrate, ranges of obtained pIC50, read-out: pIC50 VIM-2 (converted)
Procedure, shortened: as §1

[5] = system: Acinetobacter baumannii NDM-1; test: Antibiotic susceptibility testing (MIC), AB NDM-1; assay type: cell-based; details: agar or broth dilution (CLSI/EUCAST)
Experimental: (§3) Antibiotic susceptibility testing was performed using the agar or broth dilution method, in line with the Clinical and Laboratory Standards Institute (CLSI) and European Committee on Antimicrobial Susceptibility Testing (EUCAST) requirements.

Escherichia coli NDM-1 = test: Antibiotic susceptibility testing (MIC), EC NDM-1; assay type: cell-based; details: agar or broth dilution (CLSI/EUCAST)
Experimental: as §3

Escherichia coli NDM-7 = test: Antibiotic susceptibility testing (MIC), EC NDM-7; assay type: cell-based; details: agar or broth dilution (CLSI/EUCAST)
Experimental: as §3

NDM-1, sequence (C7C422 29-270, looked up, species assumed): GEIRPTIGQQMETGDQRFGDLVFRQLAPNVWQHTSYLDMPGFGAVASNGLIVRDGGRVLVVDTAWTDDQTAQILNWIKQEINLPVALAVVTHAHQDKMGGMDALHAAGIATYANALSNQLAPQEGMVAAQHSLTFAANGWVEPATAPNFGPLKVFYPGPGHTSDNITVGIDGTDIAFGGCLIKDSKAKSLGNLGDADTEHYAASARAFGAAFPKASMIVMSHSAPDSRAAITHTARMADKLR

Row | SMILES | IC50 (NDM-1) [nM] | fraction unbound at 4 h, 10 μM [1] | IC50 (IMP-1) [nM] | half-life at 1 μM [2] [h] | IC50 (VIM-1) [nM] | fraction unbound at 4 h, 10 μM [3] | half-life at 1 μM [4] [h] | IC50 (VIM-2) [nM] | MIC values AB NDM-1 [5] | MIC values EC NDM-1 (Escherichia coli NDM-1) | MIC values EC NDM-7 (Escherichia coli NDM-7)
1 | C[C@H](OCc1ccc(CN)cc1)c1cccc2c(-c3ccc(CS(C)(=O)=O)c(Cl)c3)c(C(=O)O)[nH]c12 (single isomer, unassigned) [IC-87] | < 0.1 | 0.05 to 0.25 | 1 to 10 | < 2.5 | 1 to 10 | 0.005 to 0.05 | > 6.67 | 0.1 to 1 | – | – | –
2 | C[C@@H](OCc1ccc(CN)cc1)c1cccc2c(-c3ccc(CS(C)(=O)=O)c(Cl)c3)c(C(=O)O)[nH]c12 (single isomer, unassigned) [IC-88] | 0.1 to 1 | < 0.005 | 1 to 10 | < 2.5 | > 10 | 0.005 to 0.05 | > 6.67 | > 10 | – | – | –
3 | C[C@@H](c1cccc2c(-c3ccc(NS(C)(=O)=O)c(C#N)c3)c(C(=O)O)[nH]c12)N1C[C@]2(C[C@@H](CN)C2)OC1=O [IC-16, 7-((1S)-1-(2-(aminomethyl)-6-oxo-5-oxa-7-azaspiro[3.4]octan-7-yl)ethyl)-3-(3-cyano-4-(methylsulfonamido)phenyl)-1H-indole-2-carboxylic acid] | < 0.1 | 0.05 to 0.25 | > 10 | > 6.67 | 1 to 10 | 0.05 to 0.25 | > 6.67 | 0.1 to 1 | B (B MIC values 2 ÷ 8) | A (A = MIC values ≤ 1) | A (A = MIC values ≤ 1)
4 | C[C@@H](c1cccc2c(-c3c(F)cc(NS(C)(=O)=O)cc3F)c(C(=O)O)[nH]c12)n1cc(CN2CC(N)C2)oc1=O [IC-51, 7-[(1S)-1-{5-[(3-Aminoazetidin-1-yl)methyl]-2-oxo-2,3-dihydro-1,3-oxazol-3-yl}ethyl]-3-(2,6-difluoro-4-methanesulfonamidophenyl)-1H-indole-2-carboxylic acid] | 1 to 10 | 0.005 to 0.05 | > 10 | – | > 10 | 0.05 to 0.25 | – | 1 to 10 | C (C = MIC values > 8) | C (C = MIC values > 8) | B (B MIC values 2 ÷ 8)
5 | C[C@@H](c1cccc2c(-c3ccc(NS(C)(=O)=O)c(C#N)c3)c(C(=O)O)[nH]c12)n1cc(CN2CC(N)C2)oc1=O [IC-55, 7-[(1S)-1-{5-[(3-aminoazetidin-1-yl)methyl]-2-oxo-2,3-dihydro-1,3-oxazol-3-yl}ethyl]-3-(3-cyano-4-methanesulfonamidophenyl)-1H-indole-2-carboxylic acid] | < 0.1 | 0.005 to 0.05 | > 10 | 2.5 to 6.67 | > 10 | 0.05 to 0.25 | 2.5 to 6.67 | 0.1 to 1 | B (B MIC values 2 ÷ 8) | B (B MIC values 2 ÷ 8) | B (B MIC values 2 ÷ 8)
6 | C[C@@H](c1cccc2c(-c3ccc(CS(C)(=O)=O)c(F)c3)c(C(=O)O)[nH]c12)n1cc(CN2CC(C)(N)C2)oc1=O [IC-68, (S)-7-(1-(5-((3-amino-3-methylazetidin-1-yl)methyl)-2-oxooxazol-3(2H)-yl)ethyl)-3-(3-fluoro-4-((methylsulfonyl)methyl)phenyl)-1H-indole-2-carboxylic acid] | < 0.1 | – | > 10 | > 6.67 | 1 to 10 | – | > 6.67 | 0.1 to 1 | B (B MIC values 2 ÷ 8) | A (A = MIC values ≤ 1) | A (A = MIC values ≤ 1)
7 | CC(OCc1ccc(CN)cc1)c1cccc2c(-c3ccc(NS(C)(=O)=O)c(C#N)c3)c(C(=O)O)[nH]c12 (centres unmarked) [IC-86, 7-(1-((4-(Aminomethyl)benzyl)oxy)ethyl)-3-(3-cyano-4-(methylsulfonamido)phenyl)-1H-indole-2-carboxylic acid] | < 0.1 | 0.05 to 0.25 | > 10 | < 2.5 | > 10 | 0.005 to 0.05 | > 6.67 | 1 to 10 | – | – | –
8 | CC(c1cccc2c(-c3ccc(CS(C)(=O)=O)c(F)c3)c(C(=O)O)[nH]c12)N(C)C(=O)c1ccc(CN)cc1 (centres unmarked) [IC-97, 7-(1-(4-(Aminomethyl)-N-methylbenzamido)ethyl)-3-(3-fluoro-4-((methylsulfonyl)methyl)phenyl)-1H-indole-2-carboxylic acid] | 1 to 10 | 0.05 to 0.25 | > 10 | < 2.5 | > 10 | 0.05 to 0.25 | > 6.67 | 1 to 10 | – | – | –

More lines, main results first:

Row | IC50 (NDM-1) [nM] | fraction unbound at 4 h, 10 μM [1] | IC50 (IMP-1) [nM] | half-life at 1 μM [2] [h] | IC50 (VIM-1) [nM] | fraction unbound at 4 h, 10 μM [3] | half-life at 1 μM [4] [h] | IC50 (VIM-2) [nM] | SMILES | MIC values AB NDM-1 [5] | MIC values EC NDM-1 (Escherichia coli NDM-1) | MIC values EC NDM-7 (Escherichia coli NDM-7)
9 | 1 to 10 | 0.05 to 0.25 | > 10 | > 6.67 | > 10 | 0.05 to 0.25 | > 6.67 | < 0.1 | CC(NC(=O)[C@H]1CC[C@H](CN)CC1)c1cccc2c(-c3ccc(CS(C)(=O)=O)c(F)c3)c(C(=O)O)[nH]c12 (mixture of isomers) [IC-99, 7-[1-[[4-(Aminomethyl)cyclohexanecarbonyl]amino]ethyl]-3-[3-fluoro-4-(methylsulfonylmethyl)phenyl]-1H-indole-2-carboxylic acid] | – | – | –
10 | 0.1 to 1 | 0.05 to 0.25 | > 10 | > 6.67 | 1 to 10 | 0.05 to 0.25 | > 6.67 | 1 to 10 | CC(OCC1CCNCC1)c1cccc2c(-c3ccc(CS(C)(=O)=O)c(F)c3)c(C(=O)O)[nH]c12 (centres unmarked) [IC-89, 3-(3-Fluoro-4-((methylsulfonyl)methyl)phenyl)-7-(1-(piperidin-4-ylmethoxy)ethyl)-1H-indole-2-carboxylic acid] | – | – | –
11 | 1 to 10 | 0.005 to 0.05 | 1 to 10 | 2.5 to 6.67 | 1 to 10 | 0.05 to 0.25 | > 6.67 | 1 to 10 | CC(Oc1ccc(CN)cc1)c1cccc2c(-c3ccc(CS(C)(=O)=O)c(F)c3)c(C(=O)O)[nH]c12 (centres unmarked) [IC-92, 7-(1-(4-(Ammoniomethyl)phenoxy)ethyl)-3-(3-fluoro-4-((methylsulfonyl)methyl)phenyl)-1H-indole-2-carboxylate] | – | – | –
12 | 0.1 to 1 | 0.005 to 0.05 | > 10 | > 6.67 | > 10 | 0.05 to 0.25 | > 6.67 | 1 to 10 | CC(OC(=O)N1CCC(CN)CC1)c1cccc2c(-c3ccc(CS(C)(=O)=O)c(F)c3)c(C(=O)O)[nH]c12 (centres unmarked) [IC-95, 7-(1-((4-(Aminomethyl)piperidine-1-carbonyl)oxy)ethyl)-3-(3-fluoro-4-((methylsulfonyl)methyl)phenyl)-1H-indole-2-carboxylic acid] | – | – | –
